Reference: patent US12110293B2, “Substituted triazolo quinoxaline derivatives” (GRÜNENTHAL GMBH, priority 2018, dated 2024)

Target: T1, glucocorticoid receptor (Homo sapiens, UniProt P04150)
T1 construct: expressed in transfected cells
T1 sequence (P04150 524-758 limits assumed): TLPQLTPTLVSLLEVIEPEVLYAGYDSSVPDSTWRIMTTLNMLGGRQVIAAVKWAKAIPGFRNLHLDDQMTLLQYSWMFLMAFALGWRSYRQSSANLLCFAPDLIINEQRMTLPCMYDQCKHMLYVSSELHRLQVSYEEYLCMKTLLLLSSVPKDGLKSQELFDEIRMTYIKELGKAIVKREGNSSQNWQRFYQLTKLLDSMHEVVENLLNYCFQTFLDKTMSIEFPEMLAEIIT
Assay: Agonistic mode of action on the glucocorticoid receptor (CHO-Gal4/GR luciferase reporter cell line)
Assay type: cell-based
Details: range class observed in the agonistic assay or the antagonistic assay (CHO-Gal4/GR reporter cells); table does not say which mode applies per example
Summary of the method: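 Agonism measured as dose-dependent luciferase luminescence (FLIPR Tetra) from a GAL4-UAS reporter driven by GAL4 DBD fused to GR ligand-binding domain in stable CHO cells. Eight half-log doses, 10 μM to 0.003 μM final in 0.5% DMSO, quadruplicate, on cells seeded 24 h earlier at 5000/well; EC50 derived.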

SMILES | IC50 or EC50 (agonist or antagonist mode not specified)
COCCn1ccc2c(-c3c(OC(F)F)cc4c(c3F)-n3c(C)nnc3C(C)(C)N4)cc(F)cc21 [Example 394, 7-(Difluoro-methoxy)-9-fluoro-8-[6-fluoro-1-(2-methoxy-ethyl)-1H-indol-4-yl]-1,4,4-trimethyl-5H-[1,2,4]triazolo[4,3-a]quinoxaline] | 1 to 15 µM
COc1c(-c2cccc3c2cnn3S(C)(=O)=O)c(F)cc2c1-n1c(C)nnc1C(C)(C)N2 [Example 342, 7-Fluoro-9-methoxy-1,4,4-trimethyl-8-(1-methylsulfonyl-1H-indazol-4-yl)-5H-[1,2,4]triazolo[4,3-a] quinoxaline] | 1 to 15 µM
CCc1nnc2n1-c1c(cc(F)c(-c3cccc4c3ccn4S(C)(=O)=O)c1C)NC2(C)C [Example 247, 1-Ethyl-7-fluoro-4,4,9-trimethyl-8-(1-methylsulfonyl-1H-indol-4-yl)-5H-[1,2,4]triazolo[4,3-a]quinoxaline] | 1 to 15 µM
COCCn1c(C(F)(F)F)cc2c(-c3c(F)cc4c(c3F)-n3c(C)nnc3C(C)(C)N4)cccc21 [Example 289, 7,9-Difluoro-8-[1-(2-methoxy-ethyl)-2-(trifluoromethyl)-1H-indol-4-yl]-1,4,4-trimethyl-5H-[1,2,4]triazolo[4,3-a]quinoxaline] | 1 to 15 µM
Cc1cc2c(c(C)c1-c1cc(F)cc3c1ccn3S(C)(=O)=O)-n1c(C)nnc1C(C)(C)N2 [Example 328, 8-(6-Fluoro-1-methylsulfonyl-1H-indol-4-yl)-1,4,4,7,9-pentamethyl-5H-[1,2,4]triazolo[4,3-a]quinoxaline] | 0.1 to 1 µM
COc1cc2c(c(F)c1-c1cccc3c1ccn3CC(F)F)-n1c(C)nnc1C(C)(C)N2 [Example 314, 8-[1-(2,2-Difluoro-ethyl)-1H-indol-4-yl]-9-fluoro-7-methoxy-1,4,4-trimethyl-5H-[1,2,4]triazolo[4,3-a]quinoxaline] | 1 to 15 µM
Cc1nnc2n1-c1c(cc(F)c(-c3cccc4c3ccn4CC(F)F)c1C(F)F)NC2(C)C [Example 398, 8-[1-(2,2-Difluoro-ethyl)-1H-indol-4-yl]-9-(difluoro-methyl)-7-fluoro-1,4,4-trimethyl-5H-[1,2,4]triazolo [4,3-a]quinoxaline] | 0.1 to 1 µM
Cc1c(-c2cc(F)cc3c(C)c[nH]c23)c(Cl)cc2c1-n1c(C)nnc1C(C)(C)N2 [Example 363, 7-Chloro-8-(5-fluoro-3-methyl-1H-indol-7-yl)-1,4,4,9-tetramethyl-5H-[1,2,4]triazolo[4,3-a]quinoxaline] | < 0.1 µM
Cc1nnc2n1-c1c(cc(C(F)F)c(-c3cc(F)cc4c3ccn4S(C)(=O)=O)c1F)NC2(C)C [Example 298, 7-(Difluoro-methyl)-9-fluoro-8-(6-fluoro-1-methylsulfonyl-1H-indol-4-yl)-1,4,4-trimethyl-5H-[1,2,4]triazolo[4,3-a]quinoxaline] | 1 to 15 µM
Cc1c(-c2cccc3c2ccn3C2CC2)c(F)cc2c1-n1c(C)nnc1C(C)(C)N2 [Example 27, 8-(1-cyclopropyl-1H-indol-4-yl)-7-fluoro-1,4,4,9-tetramethyl-4,5-dihydro-[1,2,4]triazolo[4,3-a]quinoxaline] | < 0.1 µM
CC#CCc1nnc2n1-c1c(cc(F)c(-c3cc(F)cc4c(C)c[nH]c34)c1F)NC2(C)C [Example 69, 1-(but-2-yn-1-yl)-7,9-difluoro-8-(5-fluoro-3-methyl-1H-indol-7-yl)-4,4-dimethyl-4,5-dihydro-[1,2,4]triazolo[4,3-a]quinoxaline] | < 0.1 µM
COc1cc(-c2c(F)cc3c(c2C)-n2c(C)nnc2C(C)(C)N3)c2ccn(S(C)(=O)=O)c2c1 [Example 537, 7-Fluoro-8-(6-methoxy-1-methylsulfonyl-1H-indol-4-yl)-1,4,4,9-tetramethyl-5H-[1,2,4] triazolo[4,3-a]quinoxaline] | 0.1 to 1 µM
